Experimental data: ChEMBL document CHEMBL5053522, “Synthesis of 3-octadecanoxypropyl 6-deoxy-6-sulfo-α-d-glucopyranoside (ODSG) as a lipase-resistant SQAP derivative” (2021)

Tested on: A549
Assay: Cytotoxicity against human A549 cells assessed as survival rate upto 170 uM by CCK8 assay relative to control
Assay type: functional
Conditions: up to 170 µM

Row | Compound | Activity [%]
1 | CCCCCCCCCCCCCCCCCCOCCCO[C@H]1O[C@H](CS(=O)(=O)[O-])[C@@H](O)[C@H](O)[C@H]1O.[Na+] | >70
2 | CCCCCCCCCCCCCCCCCC(=O)OCCCO[C@H]1O[C@H](CS(=O)(=O)[O-])[C@@H](O)[C@H](O)[C@H]1O.[Na+] | 70
